Experimental data: ChEMBL document CHEMBL1134420, “Substituent effects within the DNA binding subunit of CBI analogues of the duocarmycins and CC-1065” (Bioorg Med Chem Lett, 2001)

System: L1210
Assay: Cytotoxic activity against L1210 leukemia cells
Type: functional, cell-based, Mus musculus

Row | SMILES | IC50 (Mus musculus, L1210) [nM] | IC50 (l1210) [nM]
1 | COc1cccc2cc(C(=O)N3C[C@H]4C[C@@]45C3=CC(=O)c3ccccc35)[nH]c12 | 0.3 | 
2 | N#Cc1cccc2cc(C(=O)N3C[C@H]4C[C@@]45C3=CC(=O)c3ccccc35)[nH]c12 | 0.3 | 
3 | O=C1C=C2N(C(=O)c3cc4ccccc4[nH]3)C[C@H]3C[C@@]23c2ccccc21 | 2.7 | 
4 | CCCC(=O)Nc1ccc2[nH]c(C(=O)N3C[C@H]4C[C@@]45C3=CC(=O)c3ccccc35)cc2c1 | 0.03 | 
5 | O=C1C=C2N(C(=O)c3cc4c(ccc5ccccc54)[nH]3)CC3CC23c2ccccc21 (stereo in doubt; 4) |  | 5
6 | CCOc1ccc2[nH]c(C(=O)N3C[C@H]4C[C@@]45C3=CC(=O)c3ccccc35)cc2c1 | 0.01 | 
7 | CCC(=O)c1ccc2[nH]c(C(=O)N3C[C@H]4C[C@@]45C3=CC(=O)c3ccccc35)cc2c1 | 0.003 | 
8 | C#Cc1ccc2[nH]c(C(=O)N3C[C@H]4C[C@@]45C3=CC(=O)c3ccccc35)cc2c1 | 0.3 | 
9 | CC(=O)c1cccc2cc(C(=O)N3C[C@H]4C[C@@]45C3=CC(=O)c3ccccc35)[nH]c12 | 0.3 | 
10 | CC(=O)Nc1ccc2[nH]c(C(=O)N3C[C@H]4C[C@@]45C3=CC(=O)c3ccccc35)cc2c1 | 0.03 | 
11 | Cc1ccc2[nH]c(C(=O)N3C[C@H]4C[C@@]45C3=CC(=O)c3ccccc35)cc2c1 | 2 | 
12 | O=C1C=C2N(C(=O)c3cc4cc5ccccc5cc4[nH]3)CC3CC23c2ccccc21 (stereo in doubt; 7) |  | 400
13 | CC(=O)c1ccc2[nH]c(C(=O)N3C[C@H]4C[C@@]45C3=CC(=O)c3ccccc35)cc2c1 | 0.002 | 
14 | O=C1C=C2N(C(=O)c3cc4cc(Cl)ccc4[nH]3)C[C@H]3C[C@@]23c2ccccc21 | 0.4 | 
15 | [N-]=[N+]=Nc1ccc2[nH]c(C(=O)N3C[C@H]4C[C@@]45C3=CC(=O)c3ccccc35)cc2c1 | 0.3 | 
16 | O=C1C=C2N(C(=O)c3cc4cc(OCc5ccccc5)ccc4[nH]3)C[C@H]3C[C@@]23c2ccccc21 | 0.05 | 

Row | SMILES | IC50 (Mus musculus, L1210) [nM] | IC50 (l1210) [nM]
17 | NC(=O)N1CCc2c1ccc1[nH]c(C(=O)N3CC4CC45C3=CC(=O)c3ccccc35)cc21 (stereo in doubt; (-)) |  | ≥ 0.38
18 | COc1cc2cc(C(=O)N3CC4CC45C3=CC(=O)c3ccccc35)[nH]c2c(OC)c1OC (single isomer, unassigned; (+)) |  | 0.03
19 | O=C1C=C2N(C(=O)c3cc4c(ccc5ccccc54)[nH]3)CC3CC23c2ccccc21 (stereo in doubt; 5) |  | 300
20 | CCCCOc1ccc2[nH]c(C(=O)N3C[C@H]4C[C@@]45C3=CC(=O)c3ccccc35)cc2c1 | 0.05 | 
21 | CCCC(=O)c1ccc2[nH]c(C(=O)N3C[C@H]4C[C@@]45C3=CC(=O)c3ccccc35)cc2c1 | 0.02 | 
22 | O=C1C=C2N(C(=O)c3cc4cc(Br)ccc4[nH]3)C[C@H]3C[C@@]23c2ccccc21 | 0.5 | 
23 | CC(=O)N(C)c1ccc2[nH]c(C(=O)N3C[C@H]4C[C@@]45C3=CC(=O)c3ccccc35)cc2c1 | 0.03 | 
24 | O=C1C=C2N(C(=O)c3cc4cc5ccccc5cc4[nH]3)CC3CC23c2ccccc21 (stereo in doubt; 6) |  | 0.5
25 | CCCOc1ccc2[nH]c(C(=O)N3C[C@H]4C[C@@]45C3=CC(=O)c3ccccc35)cc2c1 | 0.04 | 
26 | N#Cc1ccc2[nH]c(C(=O)N3C[C@H]4C[C@@]45C3=CC(=O)c3ccccc35)cc2c1 | 0.03 | 
27 | NC(=O)N1CCc2c1ccc1[nH]c(C(=O)N3CC4CC45C3=CC(=O)c3ccccc35)cc21 (stereo in doubt; (+)) |  | 0.005
28 | COc1ccc2[nH]c(C(=O)N3C[C@H]4C[C@@]45C3=CC(=O)c3ccccc35)cc2c1 | 0.05 | 
29 | CC#Cc1ccc2[nH]c(C(=O)N3C[C@H]4C[C@@]45C3=CC(=O)c3ccccc35)cc2c1 | 1 | 
30 | COc1cc2cc(C(=O)N3CC4CC45C3=CC(=O)c3ccccc35)[nH]c2c(OC)c1OC (stereo in doubt) |  | 2
31 | CCC(=O)Nc1ccc2[nH]c(C(=O)N3C[C@H]4C[C@@]45C3=CC(=O)c3ccccc35)cc2c1 | 0.03 | 
